From a melting point compilation (Tetko et al.; mined from patent text by program, amines drawn as free bases though some values may be those of a salt)

SMILES	melting point [°C]
CCOC(=O)CC(NC(=O)c1ccc(Cl)cc1)C(=O)c1ccsc1 (configuration not stated)	106 to 108
OC(CCCN1CC=C(c2cc(C(F)(F)F)on2)CC1)c1ccc(F)cc1 (configuration not stated)	120 to 122
CC(=O)Oc1ccc(C#Cc2ccccc2)cc1	104 to 106
Cc1nsc(OCC(Cl)(Cl)Cl)c1S(=O)(=O)Cl	71 to 74
CCOC(=O)C1C=CC(c2ccccc2)n2c(=O)n(CO)c(=O)n21 (configuration not stated)	129 to 133
NCc1cc(=O)[nH]c(=O)[nH]1	295 to 297
CS(=O)(=O)CCCCC(C1CCCCC1)S(=O)(=O)c1ccc(Cl)cc1 (configuration not stated)	104 to 106
COC(=O)N[C@H](C(=O)N[C@@H](Cc1ccccc1)[C@@H](O)CN(Cc1ccc(-c2cncs2)cc1)NC(=O)OC(C)(C)C)C(C)C	114 to 115
NNC(=O)NCCS(=O)(=O)O	212 to 215
O=C(O)c1ccc(-c2cccc3ccccc23)cc1	221 to 224
CC(C)(C)OC(=O)NCc1cccc(C(O)c2cc(Cl)ccc2NCc2ccc(OCc3ccccc3)c(OCc3ccccc3)c2)c1 (configuration not stated)	118 to 120
CCc1cc([N+](=O)[O-])cc([N+](=O)[O-])c1Cl	41 to 44
Nc1ccc(S(=O)(=O)Nc2cccc3c(Cl)c[nH]c23)cn1	206 to 207
CCCCC(Cn1cncn1)(C(=O)O)c1ccccc1OC (configuration not stated)	198
Nc1ccc2ccccc2c1-c1c(P(=O)(c2ccccc2)c2ccccc2)ccc2ccccc12	133
CCCCCCOc1ccc(-c2nc(-c3ccc(OCCCCCC)cc3O)nc(-c3ccc(OCCCCCC)cc3O)n2)c(O)c1	125 to 127
O=C(NC1CCN(Cc2ccccc2)CC1)c1ccc(NCc2ccnc3ccccc23)cc1	184 to 188
CCOc1nc(=O)n(C(=O)NCCCl)s1	82
C=C(CC(Cl)(Cl)Cl)c1cnc(Cl)c(Cl)c1	76 to 77
CC1(C)CC(OC(=O)NN)CC(C)(C)N1	93 to 94
CCOC(=O)CCCCCOc1cc2c(c(Cl)c1Cl)C(=O)C(C)(C1CCCC1)C2 (configuration not stated)	69 to 72
CC(C)(Oc1ccccc1)C(=O)N[C@H]1CC[C@H](c2ccc(O)cc2)CC1	114 to 117
Cc1ccc(N2C(=O)c3nccnc3C2OC(=O)N2CCNCC2)nc1 (configuration not stated)	182
CNC(=O)CCCCCCCN(Cc1ccccc1)S(=O)(=O)c1ccc(Cl)c(COc2cccc3ccc(C)nc23)c1Cl	120
NC1=CCC(c2nc3c(-c4cnn(-c5ccc(F)cc5)c4)cccn3n2)(C2CCNCC2)C=C1 (configuration not stated)	245 to 247
CC(C)CC(CS)C(=O)NCCCCCCCC(=O)N[C@@H](CCCNC(=N)N)C(=O)O (some centres not stated)	102 to 130
O=C(O)C1=Cc2cc(C#Cc3ccccc3)ccc2NC1C(F)(F)F (configuration not stated)	218 to 219
CN1CCN(Cc2cccc(-c3cc4c(Nc5cccc6[nH]ccc56)c(C#N)cnc4s3)c2)CC1	> 245
CCCCS(=O)(=O)Nc1ccc(CCCCOCCCCCCNCC(O)c2ccc(O)c(CO)n2)cc1 (configuration not stated)	55 to 57
Cc1cc(O)nc(C(Cl)(Cl)Cl)n1	173 to 174

Now from value to compound:

melting point [°C]	SMILES
123	COC(C(=O)O)c1nn(-c2ccc(Br)cc2)c2c1CCCC2 (configuration not stated)
168 to 169	COc1ccc(N2CCN(c3ccc(F)cc3)CC2)c(-c2ccc(N(C)C)cc2)n1
173 to 174	CCOC(=O)c1cc(C)sc1NN=c1c(C(=O)OCC)c[nH]c2ccccc12
199 to 202	CCOC(=O)c1c(Nc2cccc3ccccc23)n[nH]c1C
156 to 158	CCOc1nn(-c2ccc(C(F)(F)F)cn2)cc1CCOc1cc(CC(=O)O)n(C)n1
231 to 234	CC(C)OC(=O)c1cc(-n2c(=O)[nH]c3c(c2=O)CCC3)c(F)cc1F
188 to 190	CCOc1ccc(F)cc1C1OC(=O)NC1=O (configuration not stated)
195 to 197	CC(C)Oc1cc(-n2c(=O)cc(C(F)(F)F)[nH]c2=O)c(F)cc1Cl
65 to 68	COc1ccc(C2CC(=O)N(Cc3ccc4cc(F)ccc4n3)C2)cc1OC1CCCC1 (configuration not stated)
155 to 157	CON=C(C)c1ccc2nnn(Cc3ccc4ncccc4c3)c2n1
88 to 90	CC(C)Oc1cc(-n2c(Cl)nc(C(F)(F)F)cc2=O)c(F)cc1Cl
85 to 87	Cn1c(C(F)(F)F)cc(=O)n(C)c1=O
112 to 114	Cc1cn(C(C)(C)C(=O)N(C)C)nc1-c1ccccc1F
106 to 108	O=Cc1cc(S(=O)(=O)n2ccc3ccccc32)ccc1Br
86	Cc1cccc(-c2n[nH]cc2-c2ccc(F)c(-c3ccc(N4CCN(C)CC4)nc3)c2)n1
108 to 109	CN(C)c1cc(Oc2cccc(C(F)(F)F)c2)nc(C(=O)NN=CC(F)(F)C(F)(F)F)c1
214 to 215	CCOC(=O)Cn1cc(C(=O)NCCN(C)C)c2nc3c(C)cccc3cc2c1=O
128 to 129	COC(=O)c1ccc2[nH]c(C(=O)OCc3ccccc3)cc2c1
137	CC(=O)OC1CSC(Oc2cccc(-c3ccncc3)n2)C(OC(C)=O)C1OC(C)=O (configuration not stated)
179 to 181	COc1ccc(-c2nnc(N)nc2-c2ccc(OC)cc2)cc1
130 to 131	Cc1nc2cc(C(C)C)ccc2n1C

melting point [°C]	SMILES
213	N#CC(Cc1ccc(Cl)cc1)c1c(Cl)cc(N2N=CCNC2=O)cc1Cl (configuration not stated)
189 to 190	C=CCc1c(O)c(C(=O)OC)cc(Cl)c1NC(C)=O
97 to 99	C=C1CCc2onc(-c3ccccc3)c2C1=O
255 to 257	CC1=C(c2ccccc2)n2nc(C)c3c(=O)[nH]c(=S)n(c32)C1
160	COc1c(O)ccc2c1OCC2=O
163	Cc1ccc(C(=O)C(C#N)C#N)cc1
176 to 177	COC(=O)c1ccccc1S(=O)(=O)NC(=O)c1cc(C)n(C)n1
144 to 146	COC(=O)Cc1c(Cl)cc(C(=O)c2ccc(C)cc2)n1C
56.5 to 57	ClCCCc1nc2ccccn2n1
197 to 199	CC(C)C(=O)Oc1cc(-c2cn3c(n2)sc2ccccc23)cc([N+](=O)[O-])c1OC(=O)C(C)C
194 to 196	COc1ccc(Sc2ccc3c(c2)CC[C@H]2NC(=O)CC[C@]32C)cc1
74.5 to 79	COc1cc(/C=C/C(=O)CC(=O)C2CC2)ccc1O
174 to 176	CC(=O)N(C(C)=O)c1nc2n(n1)Cc1ccccc1-2
143 to 144	Cc1nccn1C(=O)c1ccccc1
114 to 116	O=c1oc(-c2ccccc2)cc(O)c1SCCCc1ccccc1
189 to 191	Cc1cc(Nc2ncnc3ccn(CCNC(=O)C(C)(C)C)c23)ccc1Oc1cccc2sncc12
166 to 167	CN(C)CCCC1(O)c2ccccc2COc2ccc(C3=NC(C)(C)CO3)cc21 (configuration not stated)
134 to 136	COc1cccc(CSc2c(O)cc(-c3ccccc3)oc2=O)c1
191	Nc1nc2ccccc2n1S(=O)(=O)C=Cc1ccccc1
237 to 240	COC1(c2cc(Sc3ccc(/C(C)=N/O)cc3)nc(N)n2)CCOCC1
160 to 162	C[C@@H](c1ccc(-c2ccc(C#N)cn2)cc1)N1CC[C@](CC(C)(C)O)(c2ccccc2)OC1=O
